Assay results taken from ChEMBL document CHEMBL1143853, “Daptomycin nonsusceptibility in Staphylococcus aureus with reduced vancomycin susceptibility is independent of alterations in MprF” (2007).
In brackets after ≈: the same amount, converted by molar mass.

Legend:
Staphylococcus aureus [1] = experiment: Antimicrobial activity against methicillin-resistant Staphylococcus aureus A8090 by agar dilution method
Staphylococcus aureus [2] = experiment: Antimicrobial activity against methicillin-resistant Staphylococcus aureus A8094 by agar dilution method; assay type: functional
Staphylococcus aureus [3] = experiment: Antimicrobial activity against methicillin-resistant Staphylococcus aureus A6224 by agar dilution method
Staphylococcus aureus [4] = experiment: Antimicrobial activity against methicillin-resistant Staphylococcus aureus A6226 by agar dilution method; assay type: functional
Staphylococcus aureus [5] = experiment: Antimicrobial activity against methicillin-resistant Staphylococcus aureus A6300 by agar dilution method; assay type: functional
Staphylococcus aureus [6] = experiment: Antimicrobial activity against methicillin-resistant Staphylococcus aureus A6298 by agar dilution method; assay type: functional
Staphylococcus aureus [7] = experiment: Antimicrobial activity against methicillin-resistant Staphylococcus aureus A8796 by agar dilution method
Staphylococcus aureus [8] = experiment: Antimicrobial activity against methicillin-resistant Staphylococcus aureus A8799 with mprF S337L mutation by agar dilution method; assay type: functional

Structure (SMILES): CCCCCCCCCC(=O)N[C@@H](Cc1c[nH]c2ccccc12)C(=O)N[C@H](CC(N)=O)C(=O)N[C@@H](CC(=O)O)C(=O)N[C@@H]1C(=O)NCC(=O)N[C@@H](CCCN)C(=O)N[C@@H](CC(=O)O)C(=O)N[C@H](C)C(=O)N[C@@H](CC(=O)O)C(=O)NCC(=O)N[C@H](CO)C(=O)N[C@@H]([C@H](C)CC(=O)O)C(=O)N[C@@H](CC(=O)c2ccccc2N)C(=O)O[C@@H]1C
- MIC (Staphylococcus aureus [1]): 0.5 mg/L (≈ 0.309 µM)
- MIC (Staphylococcus aureus [2]): 2 mg/L (≈ 1.23 µM)
- MIC (Staphylococcus aureus [3]): 0.5 mg/L (≈ 0.309 µM)
- MIC (Staphylococcus aureus [4]): 2 mg/L (≈ 1.23 µM)
- MIC (Staphylococcus aureus [5]): 1 mg/L (≈ 0.617 µM)
- MIC (Staphylococcus aureus [6]): 2 mg/L (≈ 1.23 µM)
- MIC (Staphylococcus aureus [7]): 0.5 mg/L (≈ 0.309 µM)
- MIC (Staphylococcus aureus [8]): 2 mg/L (≈ 1.23 µM)
